Key:
[1] = Optical properties: excitation/emission maxima and absolute fluorescence quantum yield; format: physicochemical
Method: Analysis were performed with a Waters Atlantis dC18 5 μm, 4.6×150 mm column using a gradient of phase A CH3COONH4 10 mM and phase B acetonitrile. Measured mass/charge ratios are listed for each compound. A dual-beam UV-VIS spectrophotometer (Lambda 40, Perkin Elmer) was used to determine the absorbance (Abs) of the compounds of the invention. […] The measurements were performed using an excitation wavelength at maximum absorbance of different dyes, and the sample was excited with a […] Xenon Light Source. Detection was performed by photomultiplier tubes (PMT-NIR) cooled detector or by TBX-04 detector. Dye solutions were carefully prepared to have an absorbance lower than 0.1 (optical densities) to minimize re-absorption phenomena. The compounds of the invention have been characterized in terms of their optical properties in vitro in aqueous medium (i.e., water/PBS pH 7.4) and in a clinical chemistry control serum (Seronorm, Sero SA), mimicking the chemical composition and optical properties of human serum. All dye or dye-conjugate solutions were freshly prepared.

[2] = target: T1, human serum albumin (HSA) (Homo sapiens, UniProt P02768); assay: Binding affinity to human serum albumin (absorbance peak shift or ultrafiltration method); conditions: for Kd: phosphate buffer, 25° C., one of the two methods, read-out: HSA affinity (KA) (converted)
T1 construct: purchased Sigma Aldrich A9511
Method: Binding affinity to human serum albumin (HSA; Sigma Aldrich, A9511) was measured using two methods, according to the level of binding affinity of the compounds.
The first method, optimal for compounds which strongly interact with HSA, is based on the analysis of the absorbance spectrum peak shift after the incubation of the dye in solutions containing HSA. Briefly, the samples were incubated at a fixed concentration (1 μM) with HSA dilutions (1×10^−6-4×10^−4M), in phosphate buffer for 5 min in the spectrophotometer at 25° C. before measurements. The measure was performed at the maximum absorbance wavelength of the shifted peak.
The second method, optimal for compound with low affinity for HSA, is based on measuring the variation of the absorbance of solutions containing the dye and various concentrations of HSA after ultrafiltration. Briefly, each compound was incubated at a fixed concentration (2 μM) with HSA dilutions (1×10^−6-4×10^−4 M), in phosphate buffer. The samples were centrifuged (10,000 g for 30 min at 25° C.) in a Microcon device (10 kDa MWCO, Amicon Ultra-0.5 Centrifugal Filter Unit with Ultracel-10 membrane, Millipore) and the absorbance measurements of the filtrates were obtained with the spectrophotometer at the maximum absorbance wavelength of the fluorophore.
For both methods, the affinity constant (KA, M^−1) was calculated by fitting the raw data with the following formula:
wherein ΔA/b=Absorbance measured (b=1 cm) KRL=KA calculated by regression analysis (curve fitting) Δε·Rt calculated by regression analysis (curve fitting) [L]=Albumin concentration
In the first method, ΔA/b corresponds to the absorbance measured for each sample, whereas in the second method ΔA/b is obtained subtracting the absorbance of the control sample (dye without HSA) to the absorbance of each other sample.
However, the measurement of the affinity constant is more precise when the suitable method is used as a function of the affinity level of the compound.

[3] = target: T2, human recombinant integrin αvβ3 (Homo sapiens, UniProt P05106+P06756); assay: Integrin receptor affinity ELISA (vitronectin-coated plates); format: binding
T2 construct: purchased R&D Systems

[4] = test system: WM-266-4 human melanoma cells; assay: Cell uptake by flow cytometry (FACS); format: cell-based
Method: The human melanoma cell line WM-266-4 (ATCC, CRL-1676) was used as in vitro model to assess the cell uptake of representative integrin-binding Compounds 1 and 3, based on the high expression of the integrin receptors, particularly αvβ3, on the membrane of these cells (Capasso et al., PlosOne 2014).
Adherent cells at about 70% confluence were incubated with the compounds 1 or 3 (1 μM) for 2h at 37° C. (5% CO2) in presence of Dulbecco's Modified Eagle's Medium (DMEM) supplemented with 10% FBS, 2 mM glutamine, 100 IU/mL penicillin and 100 μg/mL streptomycin. After two washing steps with PBS, cells were detached using 0.1 mM EDTA in PBS, centrifuged and suspended in buffer (PBS, 0.5% BSA, 0.1% NaN3) for flow cytometry experiments. Fluorescence Activated Cell Sorting (FACS) was used to detect the fluorescence signal within the cells, as measure of cell uptake. Samples were excited with an Argon laser and the emission detected using a 670 nm longpass filter. Values of fluorescence intensity were obtained from the histogram statistic produced by the instrument software.
The residual internalization was calculated by considering the value of fluorescence intensity in absence of the competitor as 100%.
Furthermore, to assess the effect of biological fluids on the cell uptake, parallel experiments were performed incubating the cells with a compounds of the invention in presence of human serum from male AB plasma (Sigma Aldrich, H4522) or human albumin (Sigma Aldrich, A9511). The residual internalization was calculated by considering the value of fluorescence intensity in absence of the serum as 100%. Such uptake assessment also represents an indication of the percentage of compound which is sequestered by the plasma proteins, in particular albumin, when it diffuses through the vascular compartment before reaching the tissue of interest and the particular targeted receptor.

[5] = Biodistribution and elimination by optical imaging after intravenous administration; format: in vivo, Balb/c nu/nu mice; conditions: ex vivo, 24 hours after iv 1 nmol/mouse
Method: Biodistribution and elimination of the fluorescent agents of the invention was evaluated by optical imaging after intravenous administration in male Balb/c nu/nu mice, 6-10 weeks of age (Charles River Laboratories). Briefly, mice housed 4 per cage and fed with VRF1 (P) sterile diet (Special Diets Services Ltd) up to the end of the acclimation period (5 days). Then, AIN-76a rodent diet irradiated (Research Diets), a special diet that reduces auto-fluorescence, was used up to the end of the experiments. Imaging experiments were performed using the preclinical optical system IVIS Spectrum (Perkin Elmer).
In vivo imaging was performed under gas anesthesia (Sevofluorane 6-8% in oxygen). Animals were intravenously injected with the compounds and imaged longitudinally at 30 min, 1 h, 2 h, 3 h, 4 h, 6 h, and 24 h post-administration. Thus, animals were euthanized by anesthesia overdose, and the main tissues and organs of interest were excised for ex vivo optical imaging. Regions of interest (ROIs) were drawn on the tissues of interest for each fluorescence image at every time point to evaluate signal intensity (expressed as Average adiant Efficiency). The ratio between the fluorescence signal in the muscle (background tissue) and excretory organs (kidney, liver) was then calculated to assess the contrast. The tissue half-life was calculated by fitting the fluorescence signal decay in the muscle with a bi-exponential decay equation model using GraphPad Prism Software (version 5 for Windows).

Row | Compound | Max Em ([1]; PBS pH 7.4) [nm] | Max Ex ([1]; PBS pH 7.4) [nm] | Φ (absolute fluorescence quantum yield) ([1]; PBS pH 7.4) [%] | Φ (absolute fluorescence quantum yield) ([1]; Seronorm control serum) [%] | Kd [2] [µM] | HSA KA ([2]; first method (absorbance peak shift)) | HSA KA ([2]; second method (ultrafiltration)) | IC50 [3] [nM] | Residual cell uptake in presence of human serum ([4]; 1 μM, 2h at 37° C., uptake without serum = 100%) [%] | Residual uptake in the presence of c(RGDfK) as competitor ([4]; 100 μM c(RGDfK), uptake without competitor = 100%) [%] | Kidney to muscle ratio [5] | Liver to muscle ratio [5]
1 | CC(CC[N+]1=C(/C=C/C=C/C=C/C=C2/N(CCCCCC(=O)NCC3C[C@@H]4CC[C@H]5C(=O)N[C@@H](CCCNC(=N)N)C(=O)NCC(=O)N[C@@H](CC(=O)O)C(=O)N[C@H]3C(=O)N45)c3ccc(C(=O)NCC(O)C(O)C(O)C(O)CO)cc3C2(C)C)C(C)(C)c2cc(C(=O)NCC(O)C(O)C(O)C(O)CO)ccc21)S(=O)(=O)[O-] (stereo partly drawn) [Compound 3] | 785 | 757 | 10.6 | 11.7 | 238 | – | – | 2.64 ± 0.35 | 75 | 15 | 2.90 ± 0.55 | 2.50 ± 0.32
2 | CC(CC[N+]1=C(/C=C/C=C/C=C/C=C2/N(CCCCCC(=O)O)c3ccc(C(=O)NCC(O)C(O)C(O)C(O)CO)cc3C2(C)C)C(C)(C)c2cc(C(=O)NCC(O)C(O)C(O)C(O)CO)ccc21)S(=O)(=O)[O-] (stereo not drawn) [Compound 4] | 785 | 755 | 8.9 | 13.4 | 196 | – | – | – | – | – | – | –
3 | CC1(C)C(/C=C/C=C/C=C2/N(CCCCCC(=O)O)c3ccc(C(=O)NCC(O)C(O)C(O)C(O)CO)cc3C2(C)C)=[N+](CCCCS(=O)(=O)[O-])c2ccc(C(=O)NCC(O)C(O)C(O)C(O)CO)cc21 (stereo not drawn) [Compound 6] | 675 | 656 | 35.6 | 35.9 | > 1000 | – | – | – | – | – | – | –
4 | CC1(C)C(/C=C/C=C/C=C2/N(CCCCCC(=O)O)c3ccc(C(=O)NC(CO)(CO)CO)cc3C2(C)C)=[N+](CCCCS(=O)(=O)[O-])c2ccc(C(=O)NC(CO)(CO)CO)cc21 [Compound 7] | 675 | 655 | 35.1 | 35.1 | 289 | – | – | – | – | – | – | –
5 | CC1(C)C(/C=C/C=C/C=C/C=C2\N(CCCCS(=O)(=O)O)c3ccc4ccccc4c3C2(C)C)=[N+](CCCCS(=O)(=O)[O-])c2ccc3ccccc3c21 [ICG, Indocyanine Green, reference compound] | 810 | 780 | 1.5 | 7.8 | 2.88 | – | – | – | – | – | – | –

The next lines start with results.

Row | Max Em ([1]; PBS pH 7.4) [nm] | Max Ex ([1]; PBS pH 7.4) [nm] | Φ (absolute fluorescence quantum yield) ([1]; PBS pH 7.4) [%] | Φ (absolute fluorescence quantum yield) ([1]; Seronorm control serum) [%] | Kd [2] [µM] | HSA KA ([2]; first method (absorbance peak shift)) | HSA KA ([2]; second method (ultrafiltration)) | Compound | IC50 [3] [nM] | Residual cell uptake in presence of human serum ([4]; 1 μM, 2h at 37° C., uptake without serum = 100%) [%] | Residual uptake in the presence of c(RGDfK) as competitor ([4]; 100 μM c(RGDfK), uptake without competitor = 100%) [%] | Kidney to muscle ratio [5] | Liver to muscle ratio [5]
6 | 665 | 645 | 27.0 | 35.6 | – | – | – | CN1/C(=C/C=C/C=C/C2=[N+](CCCCCC(=O)O)c3ccc(S(=O)(=O)[O-])cc3C2(C)C)C(C)(C)c2cc(S(=O)(=O)O)ccc21 [Sulfo-Cy5, reference compound] | – | – | – | – | –
7 | – | – | – | – | – | 215,000 M^−1 | 216,000 M^−1 | IRDye 800CW carboxylate [reference compound] | – | – | – | – | –

From patent US20220242853A1, “MODIFIED CYANINE DYES AND CONJUGATES THEREOF” (BRACCO IMAGING S.P.A., priority 2019, published 2022)
